Data: ChEMBL document CHEMBL1149019, “Antineoplastic agents, 120. Pancratium littorale” (1986)
≈ marks a conversion by molar mass, not a printed value.

Legend:
Format in all cases: functional
[1] = Cytotoxicity against mouse 9PS cells; details: read-out: ED50 (the source's name)
[2] = system: P388; assay: In vivo cytotoxicity against mouse P388 cells at 12.5 mg/kg relative to control
[3] = system: P388; assay: In vivo cytotoxicity against mouse P388 cells at 25 mg/kg relative to control
[4] = system: P388; assay: In vivo cytotoxicity against mouse P388 cells at 0.75 to 6 mg/kg relative to control; details: dose mg/kg 0.75-6
[5] = system: M5076; assay: In vivo cytotoxicity against mouse M5076 cells at 0.38 to 3 mg/kg relative to control; details: dose mg/kg 0.38-3
[6] = system: P388; assay: In vivo antitumor activity against mouse P388 cells assessed as life extension at 0.75 to 12.5 mg/kg; details: dose mg/kg 0.75-12.5
[7] = system: M5076; assay: In vivo antitumor activity against mouse M5076 cells assessed as life extension at 0.38 to 3 mg/kg; details: dose mg/kg 0.38-3

SMILES | EC50 [1] [µg/mL] | T/C [2] | T/C [3] | T/C [4] | T/C [5] | Activity [6] [%] | Activity [7] [%]
O=C1N[C@@H]2C(=C[C@H](O)[C@@H](O)[C@H]2O)c2cc3c(cc21)OCO3 | 0.02 (≈ 0.0687 µM) | 161 | 161 | – | – | – | –
O=C1N[C@H]2[C@H](O)[C@H](O)[C@@H](O)[C@H](O)[C@@H]2c2cc3c(c(O)c21)OCO3 [PANCRATISTATIN] | 0.01 (≈ 0.0307 µM) | 206 | – | 138 | 153 | 38 | 53
